Reference: PubChem BioAssay (NCI)
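Dose response: 5 concentrations. Exposure: 48 h. Format: 96-well plates. Endpoint: linear interpolation; highest concentration if not reached. TGI marks complete inhibition of growth.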

Key:
Experiment in all cases: growth of human tumour cells (NCI), 48 h
A498 renal = system: A498 renal
A549 NSCLC = system: A549 NSCLC
BT-549 breast = system: BT-549 breast
CAKI-1 renal = system: CAKI-1 renal
CCRF-CEM leukemia = system: CCRF-CEM leukemia
COLO 205 colon = system: COLO 205 colon
EKVX NSCLC = system: EKVX NSCLC
HCC-2998 colon = system: HCC-2998 colon
HCT-116 colon = system: HCT-116 colon
HCT-15 colon = system: HCT-15 colon
HL-60(TB) leukemia = system: HL-60(TB) leukemia
HOP-92 NSCLC = system: HOP-92 NSCLC
HS 578T breast = system: HS 578T breast
HT29 colon = system: HT29 colon
IGROV1 ovarian = system: IGROV1 ovarian
K-562 leukemia = system: K-562 leukemia
KM12 colon = system: KM12 colon
LOX IMVI melanoma = system: LOX IMVI melanoma
M14 melanoma = system: M14 melanoma
MALME-3M melanoma = system: MALME-3M melanoma
MCF7 breast = system: MCF7 breast
MDA-MB-231 breast = system: MDA-MB-231 breast
MDA-MB-435 = system: MDA-MB-435
MDA-N = system: MDA-N
MOLT-4 leukemia = system: MOLT-4 leukemia
NCI-H23 lung = system: NCI-H23 lung
NCI-H460 lung = system: NCI-H460 lung
NCI-H522 lung = system: NCI-H522 lung
NCI/ADR-RES ovarian = system: NCI/ADR-RES ovarian
OVCAR-3 ovarian = system: OVCAR-3 ovarian
OVCAR-4 ovarian = system: OVCAR-4 ovarian
OVCAR-5 ovarian = system: OVCAR-5 ovarian
OVCAR-8 ovarian = system: OVCAR-8 ovarian
PC-3 prostate = system: PC-3 prostate
RPMI-8226 leukemia = system: RPMI-8226 leukemia
SF-268 CNS = system: SF-268 CNS
SF-295 CNS = system: SF-295 CNS
SF-539 CNS = system: SF-539 CNS
SK-MEL-2 melanoma = system: SK-MEL-2 melanoma
SK-MEL-28 melanoma = system: SK-MEL-28 melanoma
SK-MEL-5 melanoma = system: SK-MEL-5 melanoma
SN12C renal = system: SN12C renal
SNB-19 CNS = system: SNB-19 CNS
SW-620 colon = system: SW-620 colon
TK-10 renal = system: TK-10 renal
U251 CNS = system: U251 CNS
UACC-257 melanoma = system: UACC-257 melanoma
UACC-62 melanoma = system: UACC-62 melanoma
UO-31 renal = system: UO-31 renal
786-0 renal = system: 786-0 renal
ACHN renal = system: ACHN renal
DU-145 prostate = system: DU-145 prostate
HOP-62 NSCLC = system: HOP-62 NSCLC
NCI-H226 lung = system: NCI-H226 lung
RXF 393 renal = system: RXF 393 renal
SNB-75 CNS = system: SNB-75 CNS
SR leukemia = system: SR leukemia

With Cc1cc(N(CCOS(C)(=O)=O)CCOS(C)(=O)=O)ccc1C=O the TGI (A498 renal) was 7.29 µM, the TGI (A549 NSCLC) was 45.7 µM and the TGI (BT-549 breast) was greater than 100 µM. The TGI (CAKI-1 renal) was 1250 nM, the TGI (CCRF-CEM leukemia) was greater than 100 µM and the TGI (COLO 205 colon) was 4.39 µM. For the same compound, the TGI (EKVX NSCLC) was 22.9 µM, the TGI (HCC-2998 colon) was 24.6 µM and the TGI (HCT-116 colon) was greater than 100 µM. It also gave a TGI (HCT-15 colon) of 71.8 µM, a TGI (HL-60(TB) leukemia) greater than 100 µM and a TGI (HOP-92 NSCLC) of 39 µM. The TGI (HS 578T breast) was 94 µM, the TGI (HT29 colon) was greater than 100 µM and the TGI (IGROV1 ovarian) was 39.2 µM. The TGI (K-562 leukemia) was greater than 100 µM, the TGI (KM12 colon) was 54.6 µM and the TGI (LOX IMVI melanoma) was 58.7 µM. The TGI (M14 melanoma) was 30.5 µM, the TGI (MALME-3M melanoma) was 28.1 µM and the TGI (MCF7 breast) was 32 µM. The TGI (MDA-MB-231 breast) was 94.6 µM, the TGI (MDA-MB-435) was 28.8 µM and the TGI (MDA-N) was 26.4 µM. The TGI (MOLT-4 leukemia) was 14.8 µM, the TGI (NCI-H23 lung) was 36.9 µM and the TGI (NCI-H460 lung) was 6.35 µM. It also gave a TGI (NCI-H522 lung) of 379 nM, a TGI (NCI/ADR-RES ovarian) of 60.5 µM and a TGI (OVCAR-3 ovarian) of 70.9 µM. It also gave a TGI (OVCAR-4 ovarian) of 45.3 µM, a TGI (OVCAR-5 ovarian) of 33.8 µM and a TGI (OVCAR-8 ovarian) greater than 100 µM. It also gave a TGI (PC-3 prostate) greater than 100 µM, a TGI (RPMI-8226 leukemia) greater than 100 µM and a TGI (SF-268 CNS) greater than 100 µM. For the same compound, the TGI (SF-295 CNS) was greater than 100 µM, the TGI (SF-539 CNS) was 2880 nM and the TGI (SK-MEL-2 melanoma) was 72.9 µM. It also gave a TGI (SK-MEL-28 melanoma) of 31.3 µM, a TGI (SK-MEL-5 melanoma) greater than 100 µM and a TGI (SN12C renal) of 11.6 µM. For the same compound, the TGI (SNB-19 CNS) was greater than 100 µM, the TGI (SW-620 colon) was greater than 100 µM and the TGI (TK-10 renal) was greater than 100 µM. The TGI (U251 CNS) was 67.4 µM, the TGI (UACC-257 melanoma) was 48 µM and the TGI (UACC-62 melanoma) was 15.7 µM. It also gave a TGI (UO-31 renal) of 35.1 µM.

CCOP(=O)(OCC)C(c1ccc(F)cc1)N(C(=O)NC(F)(F)F)c1ccc(OC)cc1 (centres undefined) gave a TGI (786-0 renal) greater than 100 µM, a TGI (A549 NSCLC) greater than 100 µM and a TGI (ACHN renal) greater than 100 µM. It also gave a TGI (CAKI-1 renal) greater than 100000 nM, a TGI (CCRF-CEM leukemia) greater than 100 µM and a TGI (COLO 205 colon) greater than 100 µM. The TGI (DU-145 prostate) was greater than 100 µM, the TGI (EKVX NSCLC) was greater than 100 µM and the TGI (HCC-2998 colon) was greater than 100 µM. The TGI (HCT-116 colon) was greater than 100 µM, the TGI (HCT-15 colon) was greater than 100 µM and the TGI (HL-60(TB) leukemia) was greater than 100 µM. For the same compound, the TGI (HOP-62 NSCLC) was greater than 100 µM, the TGI (HS 578T breast) was greater than 100 µM and the TGI (HT29 colon) was greater than 100 µM. It also gave a TGI (IGROV1 ovarian) greater than 100 µM, a TGI (K-562 leukemia) greater than 100 µM and a TGI (KM12 colon) greater than 100 µM. The TGI (LOX IMVI melanoma) was greater than 100 µM, the TGI (M14 melanoma) was greater than 100 µM and the TGI (MALME-3M melanoma) was greater than 100 µM. For the same compound, the TGI (MCF7 breast) was greater than 100 µM, the TGI (MDA-MB-231 breast) was greater than 100 µM and the TGI (MDA-MB-435) was greater than 100 µM. The TGI (MDA-N) was greater than 100 µM, the TGI (MOLT-4 leukemia) was greater than 100 µM and the TGI (NCI-H226 lung) was greater than 100 µM. It also gave a TGI (NCI-H23 lung) greater than 100 µM, a TGI (NCI-H460 lung) greater than 100 µM and a TGI (NCI-H522 lung) greater than 100000 nM. It also gave a TGI (NCI/ADR-RES ovarian) greater than 100 µM, a TGI (OVCAR-3 ovarian) greater than 100 µM and a TGI (OVCAR-5 ovarian) greater than 100 µM. For the same compound, the TGI (OVCAR-8 ovarian) was greater than 100 µM, the TGI (RPMI-8226 leukemia) was greater than 100 µM and the TGI (RXF 393 renal) was greater than 100 µM. It also gave a TGI (SF-268 CNS) greater than 100 µM, a TGI (SF-295 CNS) greater than 100 µM and a TGI (SF-539 CNS) greater than 100000 nM. The TGI (SK-MEL-28 melanoma) was greater than 100 µM, the TGI (SK-MEL-5 melanoma) was greater than 100 µM and the TGI (SN12C renal) was greater than 100 µM. The TGI (SNB-19 CNS) was greater than 100 µM, the TGI (SNB-75 CNS) was greater than 100 µM and the TGI (SR leukemia) was greater than 100 µM. The TGI (SW-620 colon) was greater than 100 µM, the TGI (TK-10 renal) was greater than 100 µM and the TGI (U251 CNS) was greater than 100 µM. For the same compound, the TGI (UACC-257 melanoma) was greater than 100 µM and the TGI (UO-31 renal) was greater than 100 µM.
